Here are results for 13 compounds from patent publication US20230414771A1, “PREPARATION AND USE OF IMMUNOSTIMULATORY CONJUGATED COMPLEXES FOR TARGETED DELIVERY AND ACTIVATION” (YAFEI SHANGHAI BIOLOGY MEDICINE SCIENCE & TECHNOLOGY CO., …, priority 2020, published 2023).

Where a SMILES comes first, the peptide text is derived from it. [ ]: non-standard residue; d: D form. The star is where a group is joined. ξ: configuration not given here. Doxorubicin(3'-N) = COc1cccc2c1C(=O)c1c(O)c3c(c(O)c1C2=O)C[C@@](O)(C(=O)CO)C[C@@H]3O[C@H]1C[C@H](N*)[C@H](O)[C@H](C)O1; X2 = CC(C)(C)c1nc(-c2cccc(NS(=O)(=O)c3c(F)cccc3F)c2F)c(-c2ccnc(N*)n2)s1; Thyronine(3,5,3'-I3) = N[C@@H](Cc1cc(I)c(Oc2ccc(O)c(I)c2)c(I)c1)C(=O)O; Hexanoyl(6-maleimido) = O=C1C=CC(=O)N1CCCCCC(=O)*; Propanoyl(3-maleimido) = O=C1C=CC(=O)N1CCC(=O)*; X1 = O=C1C=CC(=O)N1CCOCCOCCOCCC(=O)*; PEG6 = NCCOCCOCCOCCOCCOCCOCCC(=O)O; PEG4 = NCCOCCOCCOCCOCCC(=O)O; PEG3 = NCCOCCOCCOCCC(=O)O; PEG2 = NCCOCCOCCC(=O)O; ξL = CC(C)CC(N)C(=O)O

One data set deals with CT26 tumor. The data set is described as follows: CT26 tumor immune model, tumor suppression and CD8+ T cell analysis. It is filed as in vivo, BALB/c mice. The following applies: for CD8:CD45 (%): CD8-positive among CD45-positive cells in tumor, flow cytometry; for Tumor inhibition rate (%) Day 28 / Tumor volume (mm^3) Day 28: drug 36 umol/kg once a week for three weeks, PD-1 antibody 5 mg/kg. How it is done: • 1) CT26 cells were purchased from ATCC. […] The corresponding 5×10^6 cells were injected subcutaneously into the back of […] mice. After the size of tumors reached at least 100 mm^3, the mice were randomized into groups. Treatment was then initiated, with the day of treatment initiation being Day 1. • 3) The course of treatment. The drug was administered at an equimolar dose of 36 umol/kg. The control group was given normal saline. The drug was administered once a week for three week. • 4) Tumor CD8+ T cell analysis. Tumor tissue was homogenized, individual cells in the tumor were filtered, dissociated and washed twice with buffer, and then incubated with leukocyte common antigen CD45-PE and CD8-FITC-labeled antibodies for 1 hour at room temperature. The cells were washed twice with phosphate buffered saline containing 1% fetal bovine serum, and then the proportion of T lymphocyte antigen (CD8)-positive cells in leukocyte common antigen (CD45)-positive cells was analyzed by flow cytometry. An increase in the ratio indicates an increase in T lymphocytes and therefore an improvement in the immunity of the animal to the tumor. • 5) The grouping and test results are shown in Table 7.

Data set [1] is described as follows: Water solubility test (observation and HPLC). Type of data set: physicochemical. The following applies: thermodynamic from solid. How it is done: The compounds prepared in accordance with the examples of the disclosure and the reference compounds C1, C2, C3 and C4 were lyophilized (−70° C.).
A further data set concerns NAFLD model mice. The data set is described as follows: Nonalcoholic fatty liver disease (NAFLD) model mice, serum HDL-C and LDL-C. The conditions noted are these: NAFLD (high-fat diet) C57 mice, IV twice a week for 8 weeks, 12 hour after last administration, normal group 100%; for Change from normal group HDL-C: serum HDL-C; for Change from normal group LDL-C: serum LDL-C. It is filed as in vivo. As for the experimental part: • Methods: C57 mice were randomly divided into normal group (standard diet), model group (high-fat diet), simvastatin group (positive control, 3 mg/kg) and drug group (50 mg/kg), with 6 mice in each group. The normal group was fed with standard diet, and the other groups were fed with high-fat diet to induce NAFLD model. At the same time of modeling, the mice in each group were given the corresponding dose of 48 umol/kg medicine IV twice a week for 8 weeks in total. 12 hour after the last administration, the serum biochemical indicators were determined by automatic biochemical analyzer: High density lipoprotein cholesterol (HDL-C), and low density lipoprotein (LDL-C).

A further data set relates to HT1080 tumors. The data set is described as follows: HT1080 tumor model in nude mice, 36 umol/kg. Type of data set: in vivo. The following applies: for inhibition in vivo at 36 µmol/kg: Mus musculus, HT-1080, iv, 672 h, read-out: Tumor inhibition rate Day 28. As for the experimental part:
• 1. Animals: nude mice aged 6-8 weeks, all female. • 2. Preparation of tumor models • 1) HT1080 cells were purchased from ATCC and characterized according to the instructions provided. […] Randomization was performed when the tumor size reached 100 mm^3. Treatment was then initiated, and the day of initiation of treatment was counted as Day 1. • 3) Treatment process
According to the clinical application of the corresponding compound, the drug was administered intravenously (IV). The compounds indicated in the table were administered at a low dose and at the same dose of 36 umol/kg.

Data set [2] deals with Human hepatoma HepG2 cells. The data set is described as follows: Human liver cancer HepG2 tumors in nude mice. Type of data set: in vivo. The following applies: for inhibition in vivo at 54 µmol/kg: Mus musculus, HepG2, iv, 672 h, read-out: Tumor inhibition rate (%) Day 28. How it is done:
• 1. Animals: nude mice aged 6-8 weeks, all female. • 2. Preparation of tumor models
Human hepatoma HepG2 cells were purchased from ATCC and identified according to the instructions provided. […] Randomization was performed when the tumor size reached 100 mm^3.
Treatment was then initiated, and the day of initiation of treatment was counted as Day 1. • 3) Treatment process
According to the clinical application of the corresponding compound, the drug was administered intravenously (IV). The compound and the control drug were administered at a dose of 54 umol/kg, and DOX could only be administered at a dose of 18 umol/kg due to toxicity limitations.

For `CC(C)CC(NC(=O)[C@@H](CC(N)=O)NC(=O)[C@@H](C)NC(=O)[C@@H](C)NC(=O)CCOCCOCCNC(=O)CCN1C(=O)C=CC1=O)C(=O)Nc1nccc(-c2sc(C(C)(C)C)nc2-c2cccc(NS(=O)(=O)c3c(F)cccc3F)c2F)n1` (some centres unmarked) [QHL-087-dabrafenib] ({Propanoyl(3-maleimido)-PEG2}-[dA][dA][dN][ξL]-X2), in the data set with CT26 tumor, the “CD8:CD45 (%)” value was determined as 6.4%, the “Tumor inhibition rate (%) Day 28” value came to 64.0% and the “Tumor volume (mm^3) Day 28” value is given as 678.4 ± 348.7 mm^3. The solubility (usually the dissolved amount per volume that the medium holds) in data set [1] is greater than 10000 µg/mL.

Regarding `C[C@H](NC(=O)CCOCCOCCOCCOCCNC(=O)CCN1C(=O)C=CC1=O)C(=O)N[C@@H](C)C(=O)N[C@@H](CC(N)=O)C(=O)N[C@@H](Cc1cc(I)c(Oc2ccc(O)c(I)c2)c(I)c1)C(=O)O` [QHL-159-T3] ({Propanoyl(3-maleimido)-PEG4}-AAN[Thyronine(3,5,3'-I3)]-OH), in the data set on NAFLD model mice, the “Change from normal group HDL-C” value turned out to be 97.7% and the “Change from normal group LDL-C” value came to 105.3%. In addition, the solubility in data set [1] is greater than 10000 µg/mL.

Take `C[C@H](NC(=O)CCOCCOCCNC(=O)CCN1C(=O)C=CC1=O)C(=O)N[C@@H](C)C(=O)N[C@@H](CC(N)=O)C(=O)N[C@@H](Cc1cc(I)c(Oc2ccc(O)c(I)c2)c(I)c1)C(=O)O` [QHL-157-T3] ({Propanoyl(3-maleimido)-PEG2}-AAN[Thyronine(3,5,3'-I3)]-OH): in the data set with NAFLD model mice, the “Change from normal group HDL-C” value is 94.8% and the “Change from normal group LDL-C” value is listed as 110.7%. The compound also gave a solubility in data set [1] greater than 10000 µg/mL.

Take `CCC(C)(C)C(=O)O[C@H]1C[C@@H](C)C=C2C=C[C@H](C)[C@H](CC[C@@H]3C[C@@H](O)CC(=O)O3)[C@H]21` [simvastatin, reference compound]: in the data set with NAFLD model mice, the “Change from normal group HDL-C” value was 86.3% and the “Change from normal group LDL-C” value is on record as 118.3%.

As to `C[C@H](NC(=O)CCOCCOCCOCCNC(=O)CCN1C(=O)C=CC1=O)C(=O)N[C@@H](C)C(=O)N[C@H](CC(N)=O)C(=O)N[C@@H](Cc1cc(I)c(Oc2ccc(O)c(I)c2)c(I)c1)C(=O)O` [QHL-158-T3] ({Propanoyl(3-maleimido)-PEG3}-AA[dN][Thyronine(3,5,3'-I3)]-OH), in the data set with NAFLD model mice, the “Change from normal group HDL-C” value turned out to be 91.9% and the “Change from normal group LDL-C” value is reported as 103.6%. Also, the solubility in data set [1] was greater than 10000 µg/mL.

Regarding `C[C@H](NC(=O)CCCCCN1C(=O)C=CC1=O)C(=O)N[C@@H](C)C(=O)N[C@@H](CC(N)=O)C(=O)N[C@@H](Cc1cc(I)c(Oc2ccc(O)c(I)c2)c(I)c1)C(=O)O` [QHL-150-T3] ({Hexanoyl(6-maleimido)}-AAN[Thyronine(3,5,3'-I3)]-OH), in the data set with NAFLD model mice, the “Change from normal group HDL-C” value worked out at 86.8% and the “Change from normal group LDL-C” value came to 119.32%. Moreover, the solubility in data set [1] was greater than 10000 µg/mL.

Regarding `COc1cccc2c1C(=O)c1c(O)c3c(c(O)c1C2=O)C[C@@](O)(C(=O)CO)C[C@@H]3O[C@H]1C[C@H](NC(=O)[C@H](CC(C)C)NC(=O)[C@H](CC(N)=O)NC(=O)[C@H](C)NC(=O)[C@H](C)NC(=O)[C@H](CCC(=O)O)NC(=O)CCCCCN2C(=O)C=CC2=O)[C@H](O)[C@H](C)O1` [QHL-117-DOX] ({Hexanoyl(6-maleimido)}-EAANL-{Doxorubicin(3'-N)}), the inhibition in vivo at 36 µmol/kg in the data set on HT1080 tumors is 100%. Moreover, in data set [2], the inhibition in vivo at 54 µmol/kg turned out to be 100%.

On to `CCOCc1nc2c(NC(=O)OCc3ccc(NC(=O)[C@H](CC(N)=O)NC(=O)[C@H](C)NC(=O)[C@H](C)NC(=O)CCCCCN4C(=O)C=CC4=O)cc3)nc3ccccc3c2n1CC(C)(C)O` [QHL-140-resiquimod], for which, in the data set on CT26 tumor, the “CD8:CD45 (%)” value turned out to be 15.4%, the “Tumor inhibition rate (%) Day 28” value was 81.9% and the “Tumor volume (mm^3) Day 28” value is given as 342.8 ± 112.9 mm^3.

`C[C@H](NC(=O)CCOCCOCCOCCOCCOCCOCCNC(=O)CCN1C(=O)C=CC1=O)C(=O)N[C@@H](C)C(=O)N[C@H](CC(N)=O)C(=O)N[C@@H](Cc1cc(I)c(Oc2ccc(O)c(I)c2)c(I)c1)C(=O)O` [QHL-160-T3] ({Propanoyl(3-maleimido)-PEG6}-AA[dN][Thyronine(3,5,3'-I3)]-OH): in the data set with NAFLD model mice, the “Change from normal group HDL-C” value is 89.4% and the “Change from normal group LDL-C” value is given as 117.5%. For the same compound, the solubility in data set [1] is greater than 10000 µg/mL.

In the case of `CC(C)CC(NC(=O)[C@@H](CC(N)=O)NC(=O)[C@@H](C)NC(=O)[C@@H](C)NC(=O)CCOCCOCCOCCNC(=O)CCN1C(=O)C=CC1=O)C(=O)Nc1nccc(-c2sc(C(C)(C)C)nc2-c2cccc(NS(=O)(=O)c3c(F)cccc3F)c2F)n1` (some centres unmarked) [QHL-090-dabrafenib] ({Propanoyl(3-maleimido)-PEG3}-[dA][dA][dN][ξL]-X2), in the data set on CT26 tumor, the “CD8:CD45 (%)” value was 7.4%, the “Tumor inhibition rate (%) Day 28” value worked out at 68.7% and the “Tumor volume (mm^3) Day 28” value is reported as 589.7 ± 247.4 mm^3. For the same compound, the “therapeutic effect combined with PD-1, in words” value in the data set on CT26 tumor (combined with PD-1 versus single drug) is reported as “a certain synergistic effect”. Besides, in data set [1], the solubility is greater than 10000 µg/mL.

For the compound `COc1cccc2c1C(=O)c1c(O)c3c(c(O)c1C2=O)C[C@@](O)(C(=O)CO)C[C@@H]3O[C@H]1C[C@H](NC(=O)[C@H](CC(C)C)NC(=O)[C@H](CC(N)=O)NC(=O)[C@H](C)NC(=O)[C@H](C)NC(=O)CCOCCOCCOCCOCCNC(=O)CCN2C(=O)C=CC2=O)[C@H](O)[C@H](C)O1` [QHL-093-DOX] ({Propanoyl(3-maleimido)-PEG4}-AANL-{Doxorubicin(3'-N)}), the inhibition in vivo at 54 µmol/kg in data set [2] amounted to 94.2%.

Turning to `COc1cccc2c1C(=O)c1c(O)c3c(c(O)c1C2=O)C[C@@](O)(C(=O)CO)C[C@@H]3O[C@H]1C[C@H](NC(=O)[C@H](CC(C)C)NC(=O)[C@H](CC(N)=O)NC(=O)[C@H](C)NC(=O)[C@H](C)NC(=O)CCOCCOCCOCCN2C(=O)C=CC2=O)[C@H](O)[C@H](C)O1` [QHL-010-DOX] (X1-AANL-{Doxorubicin(3'-N)}), the “Tumor volume (mm^3) Day 28” value (in the data set with HT1080 tumors (36 umol/kg IV once a week for 3 weeks); in data set [2] (54 umol/kg IV once a week for 4 weeks)) was 0 mm^3 each time. Further, in the data set with HT1080 tumors, the inhibition in vivo at 36 µmol/kg stood at 100%. In the data set with HT1080 tumors (compared with equimolar dose AANL-DOX), the “growth inhibition of tumor, outcome in words” value is recorded as “the tumor disappeared”. In data set [2], the inhibition in vivo at 54 µmol/kg is 100%.

With `COc1cccc2c1C(=O)c1c(O)c3c(c(O)c1C2=O)C[C@@](O)(C(=O)CO)C[C@@H]3O[C@H]1C[C@H](NC(=O)[C@H](CC(C)C)NC(=O)[C@H](CC(N)=O)NC(=O)[C@H](C)NC(=O)[C@H](C)NC(=O)CCOCCOCCOCCNC(=O)CCN2C(=O)C=CC2=O)[C@H](O)[C@H](C)O1` [QHL-090-DOX], the inhibition in vivo at 54 µmol/kg in data set [2] turned out to be 100%.
